In patent EP2601963B1, “N-ISOVALEROYL-L-GLUTAMYL-L-TRYPTOPHAN AS AN AGENT INHIBITING THE FORMATION OF ULCERS IN THE STOMACH AND THE DUODENUM” (Obshestvo S Ogranichennoj Otvetstvennostju "CytoNIR", priority 2010, dated 2015):

Experiments:
[1] = Acute toxicity, single intramuscular dose; assay type: in vivo, white outbred male mice; conditions: single-dose administration, dose exceeding the recommended therapeutic dose more than 100 times
Method: Total toxicity of N-isovaleroyl-L-glutamyl-L-tryptophan was studied in accordance with the requirements of The Handbook of the Experimental (non-clinical) Studies of Novel Pharmaceutical Substances (2000): single dose acute toxicity and sub-acute and chronic toxicity during long-term administration of the dipeptide.
Acute toxicity testing was conducted on 60 white outbred male mice with 20 - 23 g body weights. The animals were divided into 6 equal groups. Single intramuscular doses of the medication were administered to the animals in the amount of 0.1 ml in the following doses: 1 mg/kg, 5 mg/kg, 10 mg/kg, and 20 mg/kg in sterile 0.9 % NaCl solution. The animals in the control group were receiving the same amounts of 0.9 % NaCl solution.

[2] = test system: indomethacin-induced ulcers; test: Indomethacin-induced ulcer model, therapeutic treatment: healing of gastric lesions; assay type: in vivo, male Wistar rats; design: key to gastroprotective activity (first value, GA1) / GA1 (gastroprotective activity calculated for number of lesions): GA1 = PI of control group / PI of experimental group; key to gastroprotective activity (second value, GA2): GA2 = UI of control group / UI of experimental group; key to Ulcer Index: UI = average lesion area in group × % animals with lesions / 100; Lesion Size: unit not given here
Method: (§1) All studies were conducted on male Wistar rats weighing 220 ± 20 g, obtained from Rappolovo nursery (Leningrad oblast). For 14 days prior to the experiment, the animals were held in isolation. The animals were handled in accordance with the European Convention for the Protection of Vertebrate Animals used for Experimental and Other Scientific Purposes (Strasburg, 1986). The animals were held in standard plastic cages and fed a standard diet of PK120-3 (granulated feed in accordance with order # 1179 M3 USSR 10/10/1983) with a free access to water.
(§2) Animals' body weight changes were monitored throughout the experiment. The experimental animals were then sacrificed by decapitation, and their blood was collected in test tubes. The stomachs were extracted, dissected along the major curve, rinsed with cold saline solution, and the mucosa was carefully examined through a magnifying glass under bright lights. The mucosa was inspected for color, the presence of hyperemia and its intensity. The number of lesions, which were differentiated into small round (less than 1 mm), linear, and large lesions (more than 1mm) and the size of the area they covered were calculated. The average number of lesions per one animal in a group and the percentage of animals with ulcers were also calculated. Pauls Index (PI) was used as an integral indicator of the number of lesions and was calculated as follows: • PI = average number of lesions in a group x % of animals with lesions/100 [Pauls F., Wick A.M.,Mac. Key E.M. et al. An assau method for anti ulcer substances // Gastroenterology.- 1947. #8.- p.p.774 - 782]. Ulcer index UI was calculated as: UI = average lesion area size in the group x % of animals with lesions/100; gastroprotective activity GA1 was calculated as: GA1 = PI of the control group/PI of the experimental group, GA2 = UI of the control group/UI of the experimental group.
Five groups of 10 animals per group were prepared for the experiment as described in Example 1.
In each series of the experiments, the animals were divided into experimental and control groups at 10 animals per group. The proposed medication or a comparator drug were orally administered to the animals in the experimental group, and the control animals were given distilled water in the same amount. • control group received distilled water per os; • experimental group 1 received 0.1 mkg/kg isovaleroyl glutamyl tryptophan; • experimental group 2 received 10 mkg/kg isovaleroyl glutamyl tryptophan; • experimental group 3 received 200 mkg/kg of the comparator drug Sucralfate.
2 ml/kg of the ulcerogenic dose of indomethacin equal to 30 mg/kg was administered intraperitoneally. The treatment started 24 hrs. post indomethacin administration and continued for 5 days. The animals in the experimental groups received N-isovaleroyl-L-glutamyl-L-tryptophan or the comparator drug Sucralfate, and the control group received distilled water.

[3] = test system: stress-induced gastric ulcers; test: Water-immersion stress model: gastric lesions, preventive treatment; assay type: in vivo, male Wistar rats; conditions: 200 mg/kg + stress
Method: as §1
In each series, the animals were divided into experimental and control groups with 10 rats per group. The animals in the experimental groups were orally administered the claimed preparation or a comparator drug, and the control group animals received distilled water in the same amount.
The experimental animals were divided into 5 groups, 10 animals each. The animals received the following therapy: • control group received distilled water per os; • experimental group 1 received 0.1 mkg/kg N-isovaleroyl-L-glutamyl-L-tryptophan; • experimental group 2 received 10 mkg/kg N-isovaleroyl-L-glutamyl-L-tryptophan; […]; • experimental group 4 received 50 mkg/kg of the comparator drug Misoprostol;
The experiment was conducted as follows: • The proposed drug, comparator drugs, and distilled water were administered once daily over 7 days, and on the day of the ulcerogenic stress induction one hour prior to the stress.
The rats deprived of food for 18 hrs. were placed into special cases and immersed in water vertically to the level of their xyphoids. The animals were held in this position for 5 hrs. at 23° C water temperature. After that, the animals were removed from the experiment.
as §2, with “group. The proposed drug was considered active when GA ≥ 2.” for “group.”

[4] = 0.1 mkg/kg, treatment after Indomethacin
[5] = Indomethacin 30 mg/kg + 10 mkg/kg, treatment 5 days

Substance: N-isovaleroyl-L-glutamyl-L-tryptophan [VGT preparation]
- toxic reactions [1]: did not cause any toxic reactions
- gastroprotective activity (first value, GA1) [2, 4]: 2
- gastroprotective activity (second value, GA2) [2, 4]: 2.6
- # Lesions [2, 5]: 6.2 ± 1.3
- % Animals with Ulcers [2, 5]: 100%
- GA1 (gastroprotective activity calculated for number of lesions) [2, 5]: 1.4
- Lesion Size [2, 5]: 23.6 ± 6.1
- PI [2, 5]: 6.2
- Ulcer Index [2, 5]: 23.6

Substance: aluminum complex of beta-D-fructofuranosyl-alpha-D-glucopyranoside octakis (hydrosulfate) [Sucralfate]
- # Lesions [3]: 8.8 ± 1.4
- % Animals with Ulcers [3]: 90%
- GA1 (gastroprotective activity calculated for number of lesions) [3]: 2.79
- GA2 (gastroprotective activity calculated for lesion size) [3]: 2.99
- Large round Amt. [3]: 3.9 ± 0.8
- Large round Size [3]: 2.4 ± 0.6
- Lesion Size [3]: 7.5 ± 1.5
- Linear Amt. [3]: 2.5 ± 0.6
- Linear Size [3]: 4.5 ± 1.0
- Pauls Index [3]: 7.92
- Small round Amt. [3]: 2.4 ± 0.7
- Small round Size [3]: 0.7 ± 0.2
- Total Amt. [3]: 8.8 ± 1.4
- Total Size [3]: 7.5 ± 1.5
- Ulcer Index [3]: 6.75
